Marks after values point to notes of the source that are not given here.
System: ZR75-1 cells
Experiment: Immuno-staining of protein expression and protein phosphorylation, ZR75-1 cells
Format: cell-based
Parameters: ATM level / P-317 (ULK1) level / Beclin1 level / ATG5 level / HDAC8 level / BIM level: scale not given here
Method: ZR75-1 and MCF7 cells were treated with vehicle control, GZ17-6.02, Palbociclib or the drugs combined for 3 hours and for 6 hours. Cells were fixed in place and immuno-staining performed with in house validated antibodies to detect protein expression and protein phosphorylation.

CC(=O)c1c(C)c2cnc(Nc3ccc(N4CCNCC4)cn3)nc2n(C2CCCC2)c1=O [PALBO, Palbociclib]
AKT level (ZR75, 3 h): 100 | AMPKa level (ZR75, 3 h): 100 | ATG5 level (ZR75, 3 h): 107 | ATG13 level (ZR75, 3 h): 101 | ATM level (ZR75, 3 h): 99 | BAK level (ZR75, 3 h): 107 | BAX level (ZR75, 3 h): 106 | BCL-XL level (ZR75, 3 h): 94 | BIM level (ZR75, 3 h): 109 | Beclin1 level (ZR75, 3 h): 112 | CD95 level (ZR75, 3 h): 100 | CHOP level (ZR75, 3 h): 107 | Cyclin D level (ZR75, 3 h): 108 | Cyclin E level (ZR75, 3 h): 103 | ER level (ZR75, 3 h): 100 | ERBB1 level (ZR75, 3 h): 99 | ERBB2 level (ZR75, 3 h): 99 | ERBB3 level (ZR75, 3 h): 100 | ERK1/2 level (ZR75, 3 h): 100 | ERK2 level (ZR75, 3 h): 100 | ERRB4 level (ZR75, 3 h): 100 | FAS-L level (ZR75, 3 h): 108 | GRP78 level (ZR75, 3 h): 108 | HDAC1 level (ZR75, 3 h): 101 | HDAC2 level (ZR75, 3 h): 99 | HDAC3 level (ZR75, 3 h): 96 | HDAC4 level (ZR75, 3 h): 100 | HDAC5 level (ZR75, 3 h): 98 | HDAC6 level (ZR75, 3 h): 99 | HDAC7 level (ZR75, 3 h): 101 | HDAC8 level (ZR75, 3 h): 100 | HDAC9 level (ZR75, 3 h): 101 | HDAC10 level (ZR75, 3 h): 98 | HDAC11 level (ZR75, 3 h): 96 | IDO1 level (ZR75, 3 h): 96 | JAK2 level (ZR75, 3 h): 100 | JNK1/2 level (ZR75, 3 h): 100 | LATS1/2 level (ZR75, 3 h): 98 | MCL1 level (ZR75, 3 h): 96 | MHCA level (ZR75, 3 h): 102 | NEDD4 level (ZR75, 3 h): 100 | NFkB level (ZR75, 3 h): 100 | ODC level (ZR75, 3 h): 100 | P-89 (TAZ) level (ZR75, 3 h): 101 | P-109 (YAP) level (ZR75, 3 h): 101 | P-127 (YAP) level (ZR75, 3 h): 100 | P-317 (ULK1) level (ZR75, 3 h): 112 | P-397 (YAP) level (ZR75, 3 h): 98 | P-757 (ULK1) level (ZR75, 3 h): 96 | P-909 (LATS1/2) level (ZR75, 3 h): 98 | P-1079 (LATS1/2) level (ZR75, 3 h): 101 | P-AMPKa level (ZR75, 3 h): 115# | P-ATG13 level (ZR75, 3 h): 113# | P-ATM level (ZR75, 3 h): 106 | P-ERBB1 level (ZR75, 3 h): 101 | P-ERBB2 level (ZR75, 3 h): 96 | P-ERBB3 level (ZR75, 3 h): 115# | P-ERBB4 level (ZR75, 3 h): 107 | P-ERK level (ZR75, 3 h): 97 | P-JAK2 level (ZR75, 3 h): 100 | P-JNK level (ZR75, 3 h): 90 | P-KIT level (ZR75, 3 h): 100 | P-MET level (ZR75, 3 h): 101 | P-NFkB level (ZR75, 3 h): 100 | P-PDGFRb level (ZR75, 3 h): 100 | P-PERK level (ZR75, 3 h): 111 | P-S2448 (mTOR) level (ZR75, 3 h): 97 | P-S2481 (mTOR) level (ZR75, 3 h): 96 | P-T308 (AKT) level (ZR75, 3 h): 106 | P-Y694 (STAT5) level (ZR75, 3 h): 100 | P-Y705 (STAT3) level (ZR75, 3 h): 99 | P-eIF2a level (ZR75, 3 h): 110 | P-p38 level (ZR75, 3 h): 101 | P-p70 T389 level (ZR75, 3 h): 100 | PD-L1 level (ZR75, 3 h): 100 | PD-L2 level (ZR75, 3 h): 100 | PDGFRb level (ZR75, 3 h): 100 | PERK level (ZR75, 3 h): 101 | PP1 level (ZR75, 3 h): 99 | PTEN level (ZR75, 3 h): 101 | STAT3 level (ZR75, 3 h): 100 | STAT5 level (ZR75, 3 h): 100 | TAZ level (ZR75, 3 h): 100 | ULK1 level (ZR75, 3 h): 100 | Y416 (c-SRC) level (ZR75, 3 h): 101 | Y527 (c-SRC) level (ZR75, 3 h): 99 | YAP level (ZR75, 3 h): 98 | c-KIT level (ZR75, 3 h): 100 | c-MET level (ZR75, 3 h): 100 | c-SRC level (ZR75, 3 h): 101 | eIF2a level (ZR75, 3 h): 99 | mTOR level (ZR75, 3 h): 101 | p38 level (ZR75, 3 h): 100 | p70 S6K level (ZR75, 3 h): 100 | P-ERBB3 level (ZR75, 3 h, listed as Palbo): 115 | AKT level (ZR75, 6 h): 101 | AMPKa level (ZR75, 6 h): 100 | ATG5 level (ZR75, 6 h): 114# | ATG13 level (ZR75, 6 h): 100 | ATM level (ZR75, 6 h): 100 | BAK level (ZR75, 6 h): 109 | BAX level (ZR75, 6 h): 108 | BCL-XL level (ZR75, 6 h): 91 | BIM level (ZR75, 6 h): 113# | Beclin1 level (ZR75, 6 h): 118# | CD95 level (ZR75, 6 h): 101 | CHOP level (ZR75, 6 h): 109 | Cyclin D level (ZR75, 6 h): 107 | Cyclin E level (ZR75, 6 h): 105 | ER level (ZR75, 6 h): 99 | ERBB1 level (ZR75, 6 h): 100 | ERBB2 level (ZR75, 6 h): 100 | ERBB3 level (ZR75, 6 h): 99 | ERK1/2 level (ZR75, 6 h): 100 | ERK2 level (ZR75, 6 h): 99 | ERRB4 level (ZR75, 6 h): 99 | FAS-L level (ZR75, 6 h): 109 | GRP78 level (ZR75, 6 h): 112 | HDAC1 level (ZR75, 6 h): 102 | HDAC2 level (ZR75, 6 h): 95 | HDAC3 level (ZR75, 6 h): 97 | HDAC4 level (ZR75, 6 h): 100 | HDAC5 level (ZR75, 6 h): 101 | HDAC6 level (ZR75, 6 h): 98 | HDAC7 level (ZR75, 6 h): 102 | HDAC8 level (ZR75, 6 h): 99 | HDAC9 level (ZR75, 6 h): 101 | HDAC10 level (ZR75, 6 h): 100 | HDAC11 level (ZR75, 6 h): 100 | IDO1 level (ZR75, 6 h): 100 | JAK2 level (ZR75, 6 h): 100 | JNK1/2 level (ZR75, 6 h): 100 | LATS1/2 level (ZR75, 6 h): 99 | MCL1 level (ZR75, 6 h): 91 | MHCA level (ZR75, 6 h): 103 | NEDD4 level (ZR75, 6 h): 97 | NFkB level (ZR75, 6 h): 101 | ODC level (ZR75, 6 h): 98 | P-89 (TAZ) level (ZR75, 6 h): 101 | P-109 (YAP) level (ZR75, 6 h): 105 | P-127 (YAP) level (ZR75, 6 h): 106 | P-317 (ULK1) level (ZR75, 6 h): 114# | P-397 (YAP) level (ZR75, 6 h): 99 | P-757 (ULK1) level (ZR75, 6 h): 97 | P-909 (LATS1/2) level (ZR75, 6 h): 109 | P-1079 (LATS1/2) level (ZR75, 6 h): 102 | P-AMPKa level (ZR75, 6 h): 117# | P-ATG13 level (ZR75, 6 h): 121# | P-ATM level (ZR75, 6 h): 109 | P-ERBB1 level (ZR75, 6 h): 100 | P-ERBB2 level (ZR75, 6 h): 98 | P-ERBB3 level (ZR75, 6 h): 116# | P-ERBB4 level (ZR75, 6 h): 101 | P-ERK level (ZR75, 6 h): 99 | P-JAK2 level (ZR75, 6 h): 99 | P-JNK level (ZR75, 6 h): 88 | P-KIT level (ZR75, 6 h): 100 | P-MET level (ZR75, 6 h): 99 | P-NFkB level (ZR75, 6 h): 98 | P-PDGFRb level (ZR75, 6 h): 98 | P-PERK level (ZR75, 6 h): 111 | P-S2448 (mTOR) level (ZR75, 6 h): 98 | P-S2481 (mTOR) level (ZR75, 6 h): 98 | P-T308 (AKT) level (ZR75, 6 h): 106 | P-Y694 (STAT5) level (ZR75, 6 h): 99 | P-Y705 (STAT3) level (ZR75, 6 h): 99 | P-eIF2a level (ZR75, 6 h): 109 | P-p38 level (ZR75, 6 h): 100 | P-p70 T389 level (ZR75, 6 h): 101 | PD-L1 level (ZR75, 6 h): 99 | PD-L2 level (ZR75, 6 h): 104 | PDGFRb level (ZR75, 6 h): 100 | PERK level (ZR75, 6 h): 99 | PP1 level (ZR75, 6 h): 99 | PTEN level (ZR75, 6 h): 101 | STAT3 level (ZR75, 6 h): 99 | STAT5 level (ZR75, 6 h): 99 | TAZ level (ZR75, 6 h): 102 | ULK1 level (ZR75, 6 h): 100 | Y416 (c-SRC) level (ZR75, 6 h): 102 | Y527 (c-SRC) level (ZR75, 6 h): 98 | YAP level (ZR75, 6 h): 99 | c-KIT level (ZR75, 6 h): 100 | c-MET level (ZR75, 6 h): 101 | c-SRC level (ZR75, 6 h): 101 | eIF2a level (ZR75, 6 h): 100 | mTOR level (ZR75, 6 h): 100 | p38 level (ZR75, 6 h): 99 | p70 S6K level (ZR75, 6 h): 99 | P-ERBB3 level (ZR75, 6 h, listed as Palbo): 116 | increase in the levels of cyclin D and cyclin E (ZR75 and MCF7, 3 h and 6 h, trend): 5-10%
